From patent publication US10004724B2, “Compounds alpha v beta 6 integrin antagonists” (GlaxoSmithKline Intellectual Property Development Limited, priority 2014, dated 2018)

How the values were obtained:
Assay type in all cases: cell-based
[1] = target: T1, K562-αvβ8 (LAP-b1) (Homo sapiens, UniProt P06756+P26012); experiment: Cell Adhesion Assay αvβ8; settings: K562-αvβ8 cells, ligand LAP-b1, 2 mM MgCl2, BCECF-AM fluorescence; read-out: mean affinity (pIC50) αvβ8 (converted)
T1 construct: expressed in transfected cells; host or cells: K562
T1 sequence (P06756 31-889 limits assumed): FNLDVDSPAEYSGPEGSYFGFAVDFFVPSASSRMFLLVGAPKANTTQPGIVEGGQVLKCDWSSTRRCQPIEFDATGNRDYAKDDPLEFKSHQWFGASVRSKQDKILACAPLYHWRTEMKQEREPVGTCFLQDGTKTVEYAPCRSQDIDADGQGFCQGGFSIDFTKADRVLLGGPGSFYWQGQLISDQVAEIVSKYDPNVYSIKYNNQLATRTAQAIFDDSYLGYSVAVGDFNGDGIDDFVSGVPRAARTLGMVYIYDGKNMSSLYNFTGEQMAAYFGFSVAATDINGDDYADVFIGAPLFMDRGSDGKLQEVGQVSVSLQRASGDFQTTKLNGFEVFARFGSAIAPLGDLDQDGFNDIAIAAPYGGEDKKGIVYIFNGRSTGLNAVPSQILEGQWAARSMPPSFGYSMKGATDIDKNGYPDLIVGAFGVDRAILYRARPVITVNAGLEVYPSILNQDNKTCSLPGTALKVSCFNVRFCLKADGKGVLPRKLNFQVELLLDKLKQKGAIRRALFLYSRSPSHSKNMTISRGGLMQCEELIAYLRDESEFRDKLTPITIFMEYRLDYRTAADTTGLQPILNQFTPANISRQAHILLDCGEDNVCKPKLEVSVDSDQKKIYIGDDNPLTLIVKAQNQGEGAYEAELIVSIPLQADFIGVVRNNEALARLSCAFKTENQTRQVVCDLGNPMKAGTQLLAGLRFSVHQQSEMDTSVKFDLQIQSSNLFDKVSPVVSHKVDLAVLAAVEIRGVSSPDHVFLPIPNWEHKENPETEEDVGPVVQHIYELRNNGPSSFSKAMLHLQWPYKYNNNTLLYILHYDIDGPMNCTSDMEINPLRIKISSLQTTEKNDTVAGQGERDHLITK
T1 sequence (P06756 891-1048 limits assumed): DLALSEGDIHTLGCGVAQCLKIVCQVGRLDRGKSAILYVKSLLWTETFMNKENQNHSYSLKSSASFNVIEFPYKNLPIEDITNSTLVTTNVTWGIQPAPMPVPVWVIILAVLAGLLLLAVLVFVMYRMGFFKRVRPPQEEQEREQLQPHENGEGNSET
T1 sequence (P26012 43-769): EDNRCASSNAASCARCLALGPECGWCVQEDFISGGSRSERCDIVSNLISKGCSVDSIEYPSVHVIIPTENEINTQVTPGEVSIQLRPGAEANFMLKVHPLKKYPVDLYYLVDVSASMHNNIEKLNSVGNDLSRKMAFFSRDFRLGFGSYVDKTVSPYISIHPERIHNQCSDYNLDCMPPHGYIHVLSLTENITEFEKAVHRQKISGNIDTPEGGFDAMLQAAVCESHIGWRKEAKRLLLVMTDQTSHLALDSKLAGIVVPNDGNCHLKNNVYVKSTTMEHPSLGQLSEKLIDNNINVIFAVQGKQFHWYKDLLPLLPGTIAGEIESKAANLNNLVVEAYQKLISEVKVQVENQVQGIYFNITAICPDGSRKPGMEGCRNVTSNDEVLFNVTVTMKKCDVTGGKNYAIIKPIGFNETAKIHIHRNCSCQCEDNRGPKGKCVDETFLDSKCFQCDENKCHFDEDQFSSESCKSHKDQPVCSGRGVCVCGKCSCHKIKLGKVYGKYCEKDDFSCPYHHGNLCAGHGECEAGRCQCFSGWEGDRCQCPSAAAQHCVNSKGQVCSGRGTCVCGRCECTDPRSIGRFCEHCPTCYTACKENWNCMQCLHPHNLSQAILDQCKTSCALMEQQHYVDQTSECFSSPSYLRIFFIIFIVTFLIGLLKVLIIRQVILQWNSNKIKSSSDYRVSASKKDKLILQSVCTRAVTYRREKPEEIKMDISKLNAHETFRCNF
Experimental: (§1) The divalent cation used to facilitate adhesion was 2 mM MgCl2. Adhesion was quantified by cell labelling with the fluorescent dye BCECF-AM (Life Technologies), where cell suspensions at 3×10^6 cells/mL were incubated with 0.33 mL/mL of 30 mM BCECF-AM at 37° C. for 10 minutes, before dispensing into the assay plate. At the assay conclusion cells that adhered were lysed using 50 μL/well of 0.5% Triton X-100 in H2O to release fluorescence. Fluorescence intensity was detected using an Envision® plate reader (Perkin Elmer).

[2] = target: T2, K562-αvβ3 (LAP-b1) (Homo sapiens, UniProt P05106+P06756); experiment: Cell Adhesion Assay αvβ3; settings: K562-αvβ3 cells, ligand LAP-b1, 2 mM MgCl2, BCECF-AM fluorescence; read-out: mean affinity (pIC50) αvβ3 (converted)
T2 construct: expressed in transfected cells; host or cells: K562
T2 sequence (P06756 31-889 limits assumed): as the sequence (P06756 31-889 limits assumed) above
T2 sequence (P06756 891-1048 limits assumed): as the sequence (P06756 891-1048 limits assumed) above
T2 sequence (P05106 27-788): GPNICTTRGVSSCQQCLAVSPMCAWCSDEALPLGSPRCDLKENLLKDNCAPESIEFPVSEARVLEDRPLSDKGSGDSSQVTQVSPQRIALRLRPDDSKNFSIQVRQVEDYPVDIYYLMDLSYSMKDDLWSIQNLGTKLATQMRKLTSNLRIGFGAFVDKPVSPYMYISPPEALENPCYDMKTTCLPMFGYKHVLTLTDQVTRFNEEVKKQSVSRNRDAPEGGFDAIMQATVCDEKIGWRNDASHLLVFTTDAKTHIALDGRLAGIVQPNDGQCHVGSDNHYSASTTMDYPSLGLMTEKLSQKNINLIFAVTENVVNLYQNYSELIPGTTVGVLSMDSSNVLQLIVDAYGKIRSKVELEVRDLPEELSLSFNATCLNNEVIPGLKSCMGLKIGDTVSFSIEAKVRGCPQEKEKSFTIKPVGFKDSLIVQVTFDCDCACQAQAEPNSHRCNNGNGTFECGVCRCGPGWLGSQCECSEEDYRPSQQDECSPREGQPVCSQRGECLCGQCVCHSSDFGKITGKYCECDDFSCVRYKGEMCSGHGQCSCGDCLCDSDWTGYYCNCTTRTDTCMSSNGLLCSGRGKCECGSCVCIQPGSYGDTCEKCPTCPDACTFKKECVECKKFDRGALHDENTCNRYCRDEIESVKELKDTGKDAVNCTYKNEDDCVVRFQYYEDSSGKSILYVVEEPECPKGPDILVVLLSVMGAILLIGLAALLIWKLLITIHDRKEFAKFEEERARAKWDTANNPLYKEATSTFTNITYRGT
Experimental: as §1

[3] = target: T3, K562-αvβ5 (Vitronectin) (Homo sapiens, UniProt P06756+P18084); experiment: Cell Adhesion Assay αvβ5; settings: K562-αvβ5 cells, ligand Vitronectin, 2 mM MgCl2, BCECF-AM fluorescence; read-out: mean affinity (pIC50) αvβ5 (converted)
T3 construct: expressed in transfected cells; host or cells: K562
T3 sequence (P06756 31-889 limits assumed): as the sequence (P06756 31-889 limits assumed) above
T3 sequence (P06756 891-1048 limits assumed): as the sequence (P06756 891-1048 limits assumed) above
T3 sequence (P18084 24-799): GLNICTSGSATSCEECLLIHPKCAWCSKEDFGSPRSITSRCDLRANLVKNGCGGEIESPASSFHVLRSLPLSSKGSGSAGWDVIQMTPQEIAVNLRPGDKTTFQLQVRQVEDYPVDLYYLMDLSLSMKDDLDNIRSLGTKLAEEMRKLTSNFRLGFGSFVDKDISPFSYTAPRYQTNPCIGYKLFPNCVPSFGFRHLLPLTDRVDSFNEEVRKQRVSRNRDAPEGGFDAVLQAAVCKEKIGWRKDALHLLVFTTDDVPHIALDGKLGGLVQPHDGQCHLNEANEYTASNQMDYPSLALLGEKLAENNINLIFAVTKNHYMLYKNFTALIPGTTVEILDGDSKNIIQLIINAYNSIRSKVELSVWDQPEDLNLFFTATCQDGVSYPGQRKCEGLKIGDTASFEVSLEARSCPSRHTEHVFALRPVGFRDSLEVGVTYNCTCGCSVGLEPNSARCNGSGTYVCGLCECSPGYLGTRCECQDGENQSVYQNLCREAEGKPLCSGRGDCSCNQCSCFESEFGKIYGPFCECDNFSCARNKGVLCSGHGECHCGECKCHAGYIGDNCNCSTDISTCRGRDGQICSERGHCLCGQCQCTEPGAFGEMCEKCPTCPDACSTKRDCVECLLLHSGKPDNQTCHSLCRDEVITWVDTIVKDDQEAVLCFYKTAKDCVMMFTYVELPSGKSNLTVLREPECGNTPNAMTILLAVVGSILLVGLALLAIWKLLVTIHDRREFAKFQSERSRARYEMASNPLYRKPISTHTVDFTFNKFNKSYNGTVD
Experimental: as §1

[4] = target: αvβ1 (Homo sapiens, UniProt P05556+P06756); experiment: Cell Adhesion Assay αvβ1; settings: cell line and ligand for αvβ1 not listed in method, read-out: mean affinity (pIC50) αvβ1 (converted)
[5] = target: T4, K562-αvβ6 (LAP-b1) (Homo sapiens, UniProt P06756+P18564); experiment: Cell Adhesion Assay αvβ6; settings: K562-αvβ6 cells, ligand LAP-b1, 2 mM MgCl2, BCECF-AM fluorescence; read-out: mean affinity (pIC50) αvβ6 (converted)
T4 construct: expressed in transfected cells; host or cells: K562
T4 sequence (P06756 31-889 limits assumed): as the sequence (P06756 31-889 limits assumed) above
T4 sequence (P06756 891-1048 limits assumed): as the sequence (P06756 891-1048 limits assumed) above
T4 sequence (P18564 22-788): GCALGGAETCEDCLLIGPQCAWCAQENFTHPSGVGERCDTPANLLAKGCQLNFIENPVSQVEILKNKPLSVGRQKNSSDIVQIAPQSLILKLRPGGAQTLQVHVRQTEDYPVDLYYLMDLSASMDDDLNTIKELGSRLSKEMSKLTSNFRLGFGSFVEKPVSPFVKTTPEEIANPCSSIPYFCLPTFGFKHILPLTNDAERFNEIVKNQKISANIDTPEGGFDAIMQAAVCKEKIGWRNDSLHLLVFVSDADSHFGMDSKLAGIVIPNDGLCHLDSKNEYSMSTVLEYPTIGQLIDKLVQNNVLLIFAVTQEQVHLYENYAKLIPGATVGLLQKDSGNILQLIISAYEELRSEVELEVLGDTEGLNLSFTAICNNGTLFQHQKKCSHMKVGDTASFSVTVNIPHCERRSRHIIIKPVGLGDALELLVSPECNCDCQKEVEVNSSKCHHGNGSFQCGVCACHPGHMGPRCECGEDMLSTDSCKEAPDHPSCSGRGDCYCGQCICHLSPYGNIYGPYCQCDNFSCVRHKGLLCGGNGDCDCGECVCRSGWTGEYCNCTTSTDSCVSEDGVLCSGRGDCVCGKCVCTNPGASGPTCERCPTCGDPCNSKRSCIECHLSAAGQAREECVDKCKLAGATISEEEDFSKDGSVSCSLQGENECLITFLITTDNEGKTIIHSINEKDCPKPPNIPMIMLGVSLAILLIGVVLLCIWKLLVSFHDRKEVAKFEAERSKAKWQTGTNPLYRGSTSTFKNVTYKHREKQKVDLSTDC
Experimental: as §1

Row | SMILES | IC50 [1] [nM] | IC50 [2] [nM] | IC50 [3] [nM] | IC50 [4] [nM] | IC50 [5] [nM]
1 | Cc1ccn(-c2cc(C(CC(=O)O)CN3CC[C@@H](CCc4ccc5c(n4)NCCC5)C3)cc(N3CCOCC3)c2)n1 (mixture of isomers) [Example 4, 3-(3-(3-methyl-1H-pyrazol-1-yl)-5-morpholinophenyl)-4-((R)-3-(2-(5,6,7,8-tetrahydro-1,8-naphthyridin-2-yl)ethyl)pyrrolidin-1-yl)butanoic acid] | 31.6 | 6310 | 158 |  | 
2 | O=C(O)C[C@H](CN1CC[C@@H](CCc2ccc3c(n2)NCCC3)C1)c1cc(N2CCOCC2)cc(-n2cccn2)c1 [Example 3, (S)-3-(3-morpholino-5-(1H-pyrazol-1-yl)phenyl)-4-((R)-3-(2-(5,6,7,8-tetrahydro-1,8-naphthyridin-2-yl)ethyl)pyrrolidin-1-yl)butanoic acid] | 15.8 | 3980 | 200 | 50.1 | 3.16
3 | O=C(O)C[C@H](CN1CC[C@@H](CCc2ccc3c(n2)NCCC3)C1)c1cc(-c2ccn[nH]2)cc(N2CCOCC2)c1 [Example 6, (S)-3-(3-Morpholino-5-(1H-pyrazol-5-yl)phenyl)-4-((R)-3-(2-(5,6,7,8-tetrahydro-1,8-naphthyridin-2-yl)ethyl)pyrrolidin-1-yl)butanoic acid] | 7.94 | 1260 | 50.1 | 10 | 3.16
4 | Cc1cc(-c2cc([C@H](CC(=O)O)CN3CC[C@@H](CCc4ccc5c(n4)NCCC5)C3)cc(N3CCOCC3)c2)[nH]n1 [Example 7, (S)-3-(3-(3-Methyl-1H-pyrazol-5-yl)-5-morpholinophenyl)-4-((R)-3-(2-(5,6,7,8-tetrahydro-1,8-naphthyridin-2-yl)ethyl)pyrrolidin-1-yl)butanoic acid] | 25.1 | 2000 | 200 |  | 10
5 | O=C(O)C[C@H](CN1CC[C@@H](CCc2ccc3c(n2)NCCC3)C1)c1cc(-c2cn[nH]c2)cc(N2CCOCC2)c1 [Example 8, (S)-3-(3-Morpholino-5-(1H-pyrazol-4-yl)phenyl)-4-((R)-3-(2-(5,6,7,8-tetrahydro-1,8-naphthyridin-2-yl)ethyl)pyrrolidin-1-yl)butanoic acid] | 5.01 | 3980 | 63.1 |  | 5.01
